Test results reported in ChEMBL document CHEMBL3112450, “Synthesis and in vitro antitumor evaluation of primary amine substituted quinazoline linked benzimidazole” (Bioorg Med Chem Lett, 2014).

Legend:
Type in all cases: functional
RPMI-8226 [1] = experiment: Cytotoxicity against human RPMI8226 cells assessed as cell growth at 10^-7 M after 48 hrs by SRB assay; conditions: RPMI-8226, 48 h, read-out: Activity
A498 = experiment: Cytotoxicity against human A498 cells assessed as cell growth at 10^-8 M after 48 hrs by SRB assay; conditions: A498, 48 h, read-out: Activity
HT-29 = experiment: Cytotoxicity against human HT-29 cells assessed as cell growth at 10^-8 M after 48 hrs by SRB assay; conditions: HT-29, 48 h, read-out: Activity
MDA-MB-231 [2] = experiment: Cytotoxicity against human MDA-MB-231 cells after 48 hrs by SRB assay; conditions: MDA-MB-231, 48 h
LOX IMVI = experiment: Cytotoxicity against human LOXIMVI cells assessed as cell growth at 10^-8 M after 48 hrs by SRB assay; conditions: read-out: Activity
SR = experiment: Cytotoxicity against human SR cells assessed as cell growth at 10^-4 M after 48 hrs by SRB assay; conditions: read-out: Activity
[3] = Cytotoxicity against human OVCAR5 cells assessed as cell growth at 10^-6 M after 48 hrs by SRB assay; conditions: OVCAR-5, 48 h, read-out: Activity
MDA-MB-231 [4] = experiment: Cytotoxicity against human MDA-MB-231 cells assessed as cell growth at 10^-8 M after 48 hrs by SRB assay; conditions: MDA-MB-231, 48 h, read-out: Activity
SF-539 = experiment: Cytotoxicity against human SF539 cells after 48 hrs by SRB assay; conditions: SF-539, 48 h
ACHN [5] = experiment: Cytotoxicity against human ACHN cells assessed as cell growth at 10^-7 M after 48 hrs by SRB assay; conditions: read-out: Activity
UACC-62 = experiment: Cytotoxicity against human UACC62 cells assessed as cell growth at 10^-4 M after 48 hrs by SRB assay; conditions: UACC-62, 48 h, read-out: Activity
[6] = Cytotoxicity against human OVCAR4 cells assessed as cell growth at 10^-4 M after 48 hrs by SRB assay; conditions: OVCAR-4, 48 h, read-out: Activity
[7] = Cytotoxicity against human OVCAR4 cells assessed as cell growth at 10^-8 M after 48 hrs by SRB assay; conditions: OVCAR-4, 48 h, read-out: Activity
T47D [8] = experiment: Cytotoxicity against human T47D cells assessed as cell growth at 10^-6 M after 48 hrs by SRB assay; conditions: read-out: Activity
U-251 = experiment: Cytotoxicity against human U251 cells assessed as cell growth at 10^-7 M after 48 hrs by SRB assay; conditions: U-251, 48 h, read-out: Activity
SK-MEL-2 [9] = experiment: Cytotoxicity against human SK-MEL-2 cells assessed as cell growth at 10^-6 M after 48 hrs by SRB assay; conditions: SK-MEL-2, 48 h, read-out: Activity
SK-MEL-2 [10] = experiment: Cytotoxicity against human SK-MEL-2 cells after 48 hrs by SRB assay; conditions: SK-MEL-2, 48 h
MDA-MB-435 = experiment: Cytotoxicity against human MDA-MB-435 cells assessed as cell growth at 10^-4 M after 48 hrs by SRB assay; conditions: MDA-MB-435, 48 h, read-out: Activity
NCI-H322M = experiment: Cytotoxicity against human NCI-H322M cells assessed as cell growth at 10^-4 M after 48 hrs by SRB assay; conditions: read-out: Activity
[11] = Cytotoxicity against human Hs578T cells assessed as cell growth at 10^-4 M after 48 hrs by SRB assay; conditions: Hs-578T, read-out: Activity
OVCAR-8 [12] = experiment: Cytotoxicity against human OVCAR8 cells assessed as growth inhibition at 10 uM after 48 hrs by SRB assay; conditions: OVCAR-8, 48 h, read-out: GI
PC-3 [13] = experiment: Cytotoxicity against human PC3 cells after 48 hrs by SRB assay; conditions: PC-3, 48 h
SF-295 [14] = experiment: Cytotoxicity against human SF295 cells assessed as cell growth at 10^-8 M after 48 hrs by SRB assay; conditions: SF-295, 48 h, read-out: Activity
MCF7 = experiment: Cytotoxicity against human MCF7 cells assessed as cell growth at 10^-6 M after 48 hrs by SRB assay; conditions: MCF7, 48 h, read-out: Activity
MDA-MB-468 = experiment: Cytotoxicity against human MDA-MB-468 cells assessed as cell growth at 10^-8 M after 48 hrs by SRB assay; conditions: MDA-MB-468, 48 h, read-out: Activity
BT-549 = experiment: Cytotoxicity against human BT549 cells assessed as cell growth at 10^-6 M after 48 hrs by SRB assay; conditions: BT-549, 48 h, read-out: Activity
ACHN [15] = experiment: Cytotoxicity against human ACHN cells assessed as cell growth at 10^-8 M after 48 hrs by SRB assay; conditions: read-out: Activity
OVCAR-3 = experiment: Cytotoxicity against human OVCAR3 cells assessed as cell growth at 10^-7 M after 48 hrs by SRB assay; conditions: OVCAR-3, 48 h, read-out: Activity
OVCAR-8 [16] = experiment: Cytotoxicity against human OVCAR8 cells assessed as cell growth at 10^-4 M after 48 hrs by SRB assay; conditions: OVCAR-8, 48 h, read-out: Activity
SF-268 = experiment: Cytotoxicity against human SF268 cells assessed as cell growth at 10^-6 M after 48 hrs by SRB assay; conditions: SF-268, 48 h, read-out: Activity
HL-60(TB) = experiment: Cytotoxicity against human HL-60(TB) cells after 48 hrs by SRB assay; conditions: HL-60, 48 h
Malme-3M = experiment: Cytotoxicity against human MALME-3M cells after 48 hrs by SRB assay
T47D [17] = experiment: Cytotoxicity against human T47D cells assessed as growth inhibition at 10 uM after 48 hrs by SRB assay; conditions: read-out: GI
SF-295 [18] = experiment: Cytotoxicity against human SF295 cells assessed as cell growth at 10^-7 M after 48 hrs by SRB assay; conditions: SF-295, 48 h, read-out: Activity
PC-3 [19] = experiment: Cytotoxicity against human PC3 cells assessed as cell growth at 10^-6 M after 48 hrs by SRB assay; conditions: PC-3, 48 h, read-out: Activity
SK-MEL-2 [20] = experiment: Cytotoxicity against human SK-MEL-2 cells assessed as cell growth at 10^-7 M after 48 hrs by SRB assay; conditions: SK-MEL-2, 48 h, read-out: Activity
HOP-92 = experiment: Cytotoxicity against human HOP92 cells assessed as cell growth at 10^-4 M after 48 hrs by SRB assay; conditions: HOP-92, 48 h, read-out: Activity
HCC 2998 = experiment: Cytotoxicity against human HCC2998 cells assessed as cell growth at 10^-7 M after 48 hrs by SRB assay; conditions: HCC 2998, 48 h, read-out: Activity
RPMI-8226 [21] = experiment: Cytotoxicity against human RPMI8226 cells assessed as cell growth at 10^-6 M after 48 hrs by SRB assay; conditions: RPMI-8226, 48 h, read-out: Activity

**Q.** With `C=CCn1c(C)nc2ccc(Nc3nc(Nc4ccc(F)cc4)nc4ccccc34)cc21` as the compound, how does the growth at 0.1 µM (RPMI-8226 [1]) read?
**A.** 103%

**Q.** And the growth at 0.01 µM (A498)?
**A.** 81%

**Q.** What about the growth at 0.01 µM (HT-29) of the same compound?
**A.** 100%

**Q.** What about the GI50 (MDA-MB-231 [2]) of the same compound?
**A.** 2.37 µM

**Q.** What about the LC50 (MDA-MB-231 [2]) of the same compound?
**A.** > 100 µM

**Q.** And the TGI (MDA-MB-231 [2])?
**A.** 8.24 µM

**Q.** And the growth at 0.01 µM (LOX IMVI)?
**A.** 97%

**Q.** What about the growth at 100 µM (SR) of the same compound?
**A.** -22%

**Q.** And the growth at 1 µM [3]?
**A.** 92%

**Q.** And the growth at 0.01 µM (MDA-MB-231 [4])?
**A.** 99%

**Q.** And the GI50 (SF-539)?
**A.** 12.3 µM

**Q.** And the LC50 (concentration giving 50% net cell kill) (SF-539)?
**A.** 53.9 µM

**Q.** And the TGI (SF-539)?
**A.** 25.7 µM

**Q.** And the growth at 0.1 µM (ACHN [5])?
**A.** 97%

**Q.** What about the growth at 100 µM (UACC-62) of the same compound?
**A.** -70%

**Q.** And the growth at 100 µM [6]?
**A.** -13%

**Q.** And the growth at 0.01 µM [7]?
**A.** 96%

**Q.** What about the growth at 1 µM (T47D [8]) of the same compound?
**A.** 79%

**Q.** And the growth at 0.1 µM (U-251)?
**A.** 92%

**Q.** And the growth at 1 µM (SK-MEL-2 [9])?
**A.** 96%

**Q.** And the GI50 (SK-MEL-2 [10])?
**A.** 3.16 µM

**Q.** What about the LC50 (SK-MEL-2 [10]) of the same compound?
**A.** 53.3 µM

**Q.** And the TGI (SK-MEL-2 [10])?
**A.** 11.4 µM

**Q.** And the growth at 100 µM (MDA-MB-435)?
**A.** -53%

**Q.** And the growth at 100 µM (NCI-H322M)?
**A.** -82%

**Q.** What about the growth at 100 µM [11] of the same compound?
**A.** -16%

**Q.** And the inhibition of growth at 10 µM (OVCAR-8 [12])?
**A.** 50%

**Q.** And the GI50 (PC-3 [13])?
**A.** 3.14 µM

**Q.** What about the TGI (PC-3 [13]) of the same compound?
**A.** 14.7 µM

**Q.** What about the CC50 (PC-3 [13]; read-out: LC50 (the source's name)) of the same compound?
**A.** 49.7 µM

**Q.** And the growth at 0.01 µM (SF-295 [14])?
**A.** 84%

**Q.** And the growth at 1 µM (MCF7)?
**A.** 73%

**Q.** What about the growth at 0.01 µM (MDA-MB-468) of the same compound?
**A.** 78%

**Q.** And the growth at 1 µM (BT-549)?
**A.** 82%

**Q.** What about the growth at 0.01 µM (ACHN [15]) of the same compound?
**A.** 98%

**Q.** And the growth at 0.1 µM (OVCAR-3)?
**A.** 98%

**Q.** And the growth at 100 µM (OVCAR-8 [16])?
**A.** -26%

**Q.** What about the growth at 1 µM (SF-268) of the same compound?
**A.** 94%

**Q.** And the GI50 (HL-60(TB))?
**A.** 4.95 µM

**Q.** What about the LC50 (HL-60(TB)) of the same compound?
**A.** > 100 µM

**Q.** And the TGI (HL-60(TB))?
**A.** 23.3 µM

**Q.** What about the GI50 (Malme-3M) of the same compound?
**A.** 13.1 µM

**Q.** And the LC50 (Malme-3M)?
**A.** 97.3 µM

**Q.** What about the TGI (Malme-3M) of the same compound?
**A.** 35.7 µM

**Q.** What about the inhibition of growth at 10 µM (T47D [17]) of the same compound?
**A.** 50%

**Q.** And the growth at 0.1 µM (SF-295 [18])?
**A.** 92%

**Q.** What about the growth at 1 µM (PC-3 [19]) of the same compound?
**A.** 84%

**Q.** And the growth at 0.1 µM (SK-MEL-2 [20])?
**A.** 101%

**Q.** And the growth at 100 µM (HOP-92)?
**A.** -84%

**Q.** And the growth at 0.1 µM (HCC 2998)?
**A.** 97%

**Q.** And the growth at 1 µM (RPMI-8226 [21])?
**A.** 84%

**Q.** For `C=CCn1c(C)nc2cc(Nc3nc(NCCO)nc4ccccc34)ccc21`, which inhibition of growth at 10 µM (OVCAR-8 [12]) is on record?
**A.** 30%

**Q.** And the inhibition of growth at 10 µM (T47D [17])?
**A.** 30%

**Q.** Which inhibition of growth at 10 µM (OVCAR-8 [12]) does the source give for `C=CCn1c(C)nc2ccc(Nc3nc(Sc4ccc(N)cc4)nc4ccccc34)cc21` here?
**A.** 30%

**Q.** And the inhibition of growth at 10 µM (T47D [17])?
**A.** 30%
